Key:
full length human TREX1 = target: T1, full length human TREX1 (Homo sapiens, UniProt Q9NSU2); test: hTREX1 Biochemical Assay (fluorescence, dsDNA substrate degradation); details: biochemical, read-out: hTREX1 IC50
T1 construct: N-terminally His-Tev tagged full length human TREX1; made in house; host or cells: E. coli
T1 sequence (Q9NSU2 1-314): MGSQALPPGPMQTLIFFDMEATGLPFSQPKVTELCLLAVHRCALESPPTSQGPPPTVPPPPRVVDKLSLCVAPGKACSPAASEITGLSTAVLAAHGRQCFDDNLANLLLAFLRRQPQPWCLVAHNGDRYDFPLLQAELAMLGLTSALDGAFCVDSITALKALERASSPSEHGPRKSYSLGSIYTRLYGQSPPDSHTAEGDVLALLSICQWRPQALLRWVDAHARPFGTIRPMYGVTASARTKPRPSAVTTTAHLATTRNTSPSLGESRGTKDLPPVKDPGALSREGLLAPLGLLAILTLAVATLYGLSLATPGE
How it was run: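 Cleavage of 60 nM TEX615/quencher-labelled dsDNA in pH 7.4 Tris buffer with 5 mM MgCl2, 1.0% DMSO, run 18 hours at 25° C, EDTA-quenched; fluorescence read-out.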

full length mouse TREX1 = target: T2, full length mouse TREX1 (Mus musculus, UniProt Q91XB0); test: mTREX1 Biochemical Assay (fluorescence, dsDNA substrate degradation); details: biochemical, read-out: mTREX1 IC50
T2 construct: N-terminally His-Tev tagged full length mouse TREX1; made in house; host or cells: E. coli
T2 sequence (Q91XB0 1-314): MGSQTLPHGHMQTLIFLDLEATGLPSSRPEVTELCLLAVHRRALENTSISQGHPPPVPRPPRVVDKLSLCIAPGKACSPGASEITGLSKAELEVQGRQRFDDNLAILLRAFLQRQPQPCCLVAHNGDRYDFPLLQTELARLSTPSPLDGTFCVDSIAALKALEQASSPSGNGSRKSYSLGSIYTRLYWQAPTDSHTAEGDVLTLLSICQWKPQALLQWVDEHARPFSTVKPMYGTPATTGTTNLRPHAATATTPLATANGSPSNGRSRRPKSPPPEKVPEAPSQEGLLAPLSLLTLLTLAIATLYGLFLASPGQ
How it was run: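 Reaction run 18 h at 25° C. with 60 nM TEX615/quencher-labelled dsDNA and 6 pM mouse TREX1 in Tris buffer (pH 7.4, 5 mM MgCl2, 1.0% DMSO), enzyme having sat 4 h with compound across 10 concentrations. EDTA quench; substrate degradation measured as fluorescence increase.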

hTREX1 = target: T3, hTREX1 (Homo sapiens, UniProt Q9NSU2); test: hTREX1 HCT116 Cell Assay (HCT116 dual cells, Lucia luciferase reporter of Type I interferon induction); type: cell-based; details: TREX1i 4 h before pBR322/BstNI transfection, read after 48 h
T3 construct: host or cells: HCT116 dual cells
T3 sequence (Q9NSU2 1-314): T1 sequence (Q9NSU2 1-314)
Excerpt: HCT116 dual cells (Invivogen, San Diego, CA, USA) are derived from the human HCT116 colorectal carcinoma cell line. Cells have been selected for the stable integration of SEAP and Luciferase reporter genes, which expression is under the control of 5 tandem response elements for NF-KB/AP1 and STAT1/STAT2, respectively. The cell line was used to monitor Type I interferon induction and subsequent signaling by measuring the activity of the Lucia luciferase secreted in the culture medium.
HCT116 cells were plated in 96-well plate(s) at 40,000 cells/well in 100 uL DMEM supplemented with 10% FBS and 25 mM Hepes (pH 7.2-7.5). After overnight settling, cells were treated with TREX1i for 4 h (maximum DMSO fraction was 0.1%) before 1 ug/mL pBR322/BstNI restriction digest (New England Biolabs, Ipswich, MA, USA) was transfected with Lipofectamine LTX (ThermoFisher, Grand Island, NY, USA), according to product manual recommendations. Briefly, Lipofectamine LTX (0.35 uL/well) was diluted in OptiMEM (5 uL/well). pBR322/BstNI (100 ng/well) was diluted in OptiMEM (5 uL/well) before Plus reagent (0.1 uL/100 ng DNA) was added. After 5 min incubation at room temperature, the DNA mixture was mixed dropwise with the diluted Lipofectamine LTX. After an additional 10 min incubation, the transfection mix (10 uL/well) was added to the cells. Cells were maintained at 37 C for 48 h before monitoring the Lucia Luciferase activity from the cell culture medium.

[1] = target: T4, human TREX2 (residues M44-A279) (Homo sapiens, UniProt Q9BQ50); test: hTREX2 Biochemical Assay (fluorescence, dsDNA substrate degradation); details: biochemical selectivity for hTREX1 vs hTREX2
T4 construct: human TREX2 (residues M44-A279, expressed in E. coli); made in house; host or cells: E. coli
T4 sequence (Q9BQ50 44-279 isoform Q9BQ50-1): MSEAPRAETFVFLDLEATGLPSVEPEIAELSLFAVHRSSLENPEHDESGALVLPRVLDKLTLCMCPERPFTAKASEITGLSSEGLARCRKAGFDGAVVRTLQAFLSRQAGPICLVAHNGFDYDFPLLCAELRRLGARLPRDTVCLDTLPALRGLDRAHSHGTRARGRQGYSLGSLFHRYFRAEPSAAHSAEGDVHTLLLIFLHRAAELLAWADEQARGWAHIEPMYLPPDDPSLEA
How it was run: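 N-His-Tev E. coli enzyme (50 pM) pre-incubated with compound 4 h at 25 °C, then 60 nM TEX615/quencher dsDNA added; 18 h at 25 °C, pH 7.4 Tris buffer with 5 mM MgCl2, 1.0% DMSO. EDTA-quenched; fluorescence 570 ex/615 em from liberated fluorophore, 10-point dose-response.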

SMILES	IC50 (full length human TREX1)	IC50 (full length mouse TREX1)	IC50 (hTREX1)	hTREX1 vs hTREX2 selectivity [1]
Cc1nn(C)cc1C(c1ccccc1C#N)C(C)c1nc(C(=O)Nc2cnoc2)c(O)c(=O)n1C (single isomer, unassigned) [Example 3 D2E2]	1 to 10 nM	> 10 nM	> 100 nM	–
Cc1c(C(c2ccccc2C#N)C(C)c2nc(C(=O)Nc3cnoc3)c(O)c(=O)n2C)cnn1C (single isomer, unassigned) [Example 4 D1E1]	< 1 nM	1 to 10 nM	10 to 100 nM	–
Cc1ccc(C(c2ccccc2C#N)C(C)c2nc(C(=O)Nc3cnoc3)c(O)c(=O)n2C)cn1 (single isomer, unassigned) [Example 5 D2E2]	1 to 10 nM	> 10 nM	> 100 nM	–
Cc1cc(C(c2ccccc2C#N)C(C)c2nc(C(=O)Nc3cnoc3)c(O)c(=O)n2C)ccn1 (single isomer, unassigned) [Example 6 D2E2]	1 to 10 nM	> 10 nM	> 100 nM	–
CC(c1nc(C(=O)Nc2cnoc2)c(O)c(=O)n1C)C(c1cnn(C)c1)c1cccnc1C#N (single isomer, unassigned) [Example 7 D1E1]	1 to 10 nM	> 10 nM	> 100 nM	–
CC(c1nc(C(=O)Nc2cnoc2)c(O)c(=O)n1C)C(c1cnn(C)c1)c1ccncc1C#N (single isomer, unassigned) [Example 8 D1E2]	< 1 nM	1 to 10 nM	10 to 100 nM	–
CC(c1nc(C(=O)Nc2cnoc2)c(O)c(=O)n1C)C(c1cnn(C)c1)c1ccncc1C#N (single isomer, unassigned) [Example 8 D2E2]	1 to 10 nM	> 10 nM	> 100 nM	–
CC(c1nc(C(=O)Nc2cnoc2)c(O)c(=O)n1C)C(c1ccccc1C#N)c1cn(C)nc1C#N (single isomer, unassigned) [Example 10 D1E2]	1 to 10 nM	> 10 nM	10 to 100 nM	–
COCCn1cc(C(c2cc(F)ccc2C#N)C(C)c2nc(C(=O)Nc3cnoc3)c(O)c(=O)n2C)cn1 (single isomer, unassigned) [Example 18 D1E2]	< 1 nM	1 to 10 nM	> 100 nM	–
CC(c1nc(C(=O)Nc2cnoc2)c(O)c(=O)n1C)C(c1cnn(C)c1)c1c(C#N)cccc1C#N (single isomer, unassigned) [Example 19 D1E2]	< 1 nM	1 to 10 nM	< 10 nM	–
CC(c1nc(C(=O)Nc2cnoc2)c(O)c(=O)n1C)C(c1cnn(C)c1)c1cc(F)c(F)cc1Cl (single isomer, unassigned) [Example 28 D1E1]	< 1 nM	1 to 10 nM	10 to 100 nM	–
Cc1cnc(C)c(C(c2cc(F)ccc2C#N)C(C)c2nc(C(=O)Nc3cnoc3)c(O)c(=O)n2C)n1 (single isomer, unassigned) [Example 119 D1E1]	–	–	< 10 nM	–
CCn1c(C(C)C(c2cnn(C)c2)c2ccccc2C#N)nc(C(=O)Nc2cnoc2)c(O)c1=O (single isomer, unassigned) [Example 149 D1E1]	> 10 nM	> 10 nM	–	A (A = <25 fold selective for hTREX1)

Source: patent US20240246946A1, “MODULATORS OF TREX1” (Constellation Pharmaceuticals, Inc., priority 2021, published 2024)
